This is an account of results in patent US20110293745A1, “AURORA KINASE INHIBITORS” (SUNESIS PHARMACEUTICALS, INC., priority 2008, published 2011).

A short description of series [1]: Pharmacokinetics, single bolus intravenous injection. Format: in vivo, Sprague-Dawley rats. The conditions noted are these: Sprague-Dawley, rat, plasma, 5 mg/kg. An excerpt:
Pharmacokinetic parameters were estimated using noncompartmental analysis within WinNonlin v. 4.1. Quantification of Compound 2 was done by HPLC-MS/MS after extraction from plasma with acetonitrile. […] For rising dose experiments measuring exposure for each species, sets containing several animals were singly dosed at a given dose. Results from single-dose experiments are shown in FIG. 10A, Table 43, and in FIG. 10B and Table 44, respectively. […] C0 is initial concentration extrapolated to time zero. AUCINF is area under the plasma-concentration time curve from time zero extrapolated to the infinite time. CL is clearance; Vss is steady state volume of distribution. T1/2 is half-life.

Series [2] in a line: Bioavailability profile, IV, IP and PO. The conditions noted are these: for F: mice, 50 mg/kg Compound 1, bioavailability. Type of series: in vivo, mice. An excerpt: Pharmacokinetic parameters were estimated using noncompartmental analysis within WinNonlin v. 4.1. […] For rising dose experiments measuring exposure for each species, sets containing several animals were singly dosed at a given dose. […] Abbreviations are as in Table 18; F is fraction of dose absorbed.

The test system of a further series is panel of 219 kinases. The settings on record: read-out: IC50 of the remaining 197 kinases.
A further series concerns A375. As to the kind of experiment: cells. The settings on record: Homo sapiens, A-375, 16 h, read-out: Cell Cycle EC50. The procedure:
(§1) Cells were fixed, stained, and analyzed. The percentage of cells with ≧4N DNA content as a function of concentration was fit to estimate EC50. For cell cycle analysis on nonadherent cells or cells with irregular morphology (A2780, HL-60, CCRF-CEM, and HT-29), tumor cells were seeded in 12-well tissue culture plates overnight at 37° C. […] Cells were trypsinized, collected, stained with propidium iodide, and analyzed by flow cytometry.

Another series concerns HL-60. The series can be described thus: cells. The settings on record: Homo sapiens, HL-60, 16 h, read-out: Cell Cycle EC50. The procedure: as §1
In the next series the test system is Calu-6. As to the kind of experiment: cells. The conditions noted are these: Homo sapiens, Calu-6, 16 h, read-out: Cell Cycle EC50. The procedure: as §1
The subject of the next series is HeLa. As to the kind of experiment: cells. The conditions noted are these: Homo sapiens, 16 h, read-out: Cell Cycle EC50. The procedure:
as §1

The next series deals with A2780. The series can be described thus: cells. The conditions noted are these: Homo sapiens, A2780, 16 h, read-out: Cell Cycle EC50. On the procedure:
as §1

A further series concerns HCT116. The series can be described thus: cells. The settings on record: Homo sapiens, HCT-116, 16 h, read-out: Cell Cycle EC50. On the procedure: as §1
For the next series, the system named is H1299. The series can be described thus: cells. The settings on record: Homo sapiens, NCI-H1299, 16 h, read-out: Cell Cycle EC50. The procedure: as §1
Another series concerns CCRF-CEM. The series can be described thus: cells. The conditions noted are these: Homo sapiens, 16 h, read-out: Cell Cycle EC50. The procedure:
as §1

Another series concerns PC3. As to the kind of experiment: cells. The settings on record: Homo sapiens, PC-3, 16 h, read-out: Cell Cycle EC50. The procedure: as §1
The next series concerns MDA-MB-231. The series can be described thus: cells. The settings on record: Homo sapiens, MDA-MB-231, 16 h, read-out: Cell Cycle EC50. On the procedure: as §1
In another series the test system is pHH3 in Calu-6. The series can be described thus: cells. The settings on record: Homo sapiens, Calu-6, 1 h, read-out: pHH3 IC50. The procedure: (§2) For analysis of pHH3 on adherent cells (HCT116, A375, and H1299), tumor cells were grown in 96-well tissue culture plates overnight at 37° C. […] Cells were fixed, permeabilized and exposed to anti-pHH3 antibody and analyzed for pHH3 staining. Data were fit to an IC50 equation. For analysis of pHH3 on nonadherent cells or cells with irregular morphology (A2780, Calu-6, and HT-29), tumor cells were seeded in 6-well tissue culture plates overnight at 37° C. […] Cells were trypsinized, collected, lysed, and analyzed by immunoblotting.

The next series has as its system pHH3 in A375. The series can be described thus: cells. The settings on record: Homo sapiens, A-375, 1 h, read-out: pHH3 IC50. The procedure: as §2
Another series deals with pHH3 in H1299. As to the kind of experiment: cells. The conditions noted are these: Homo sapiens, NCI-H1299, 1 h, read-out: pHH3 IC50. The procedure: as §2
The next series relates to pHH3 in A2780. As to the kind of experiment: cells. The conditions noted are these: Homo sapiens, A2780, 1 h, read-out: pHH3 IC50. On the procedure:
as §2

The subject of series [3] is pHH3 in HCT 116 tumor xenograft. The series can be described thus: Phospho-histone H3 in vivo (Western blot of tumor). On the set-up: species or system mouse. The conditions noted are these: single 50 mg/kg and 100 mg/kg IP; 3 hr, 6 hr, 10 hr post administration. An excerpt:
For each of the studies of compound distribution, pHH3 levels, and tumor section microscopy, after the tumors reached an average volume of 500 mm^3, the animals were weighed and sorted into randomized groups before initial dosing.

The test system of series [4] is H1299 non-small cell lung cancer xenograft. The series can be described thus: In vivo efficacy, mouse xenograft. The settings on record: H1299 (NSCLC). On the procedure:
Percent TGI is then calculated with the following equation: […]
Time To Endpoint (TTE) was calculated for each individual animal to reach the predetermined study end point where the tumor volume becomes 1200 mm^3 or 10% of body weight or a greater than 20% body weight loss for two sequential measurements. The TTE is calculated and the median value is recorded for the group. Tumor Growth Delay (TGD) is then calculated with the following equation: […]
H1299 non-small cell lung cancer cells [200 μL of a 5×10^7 cells/mL suspension (1:1 DPBS with cells:Matrigel)] were implanted subcutaneously in the right hind flank. After 10 days, when tumors reached an average volume of approximately 100 mm^3, animals were weighed, randomized by tumor volume (l×w×h×0.52), and assigned to the various study groups before initial dosing.

Where [5] appears, read: CD-1, mouse, plasma, ip, 50 mg/kg.
Where [6] appears, read: CD-1, mouse, plasma, iv, 50 mg/kg.
Setting [7] is: CD-1, mouse, plasma, po, 50 mg/kg.

Structures are written as SMILES. pEC50, pIC50: −log10 of the molar value.

As to `O=C(Nc1cccc(Cl)c1)Nc1ncc(CCNc2ncnc3ccsc23)s1` [Compound 2, 1-(3-chlorophenyl)-3-{5-[2-(thieno[3,2-d]pyrimidin-4-ylamino)ethyl]thiazol-2-yl}-urea], the AUC(0-inf) in series [1] stood at 2100 ng·h/mL; in series [2] (setting [5]), 46200 ng·h/mL; in series [2] (setting [6]), 43600 ng·h/mL; in [2] (setting [7]), 28300 ng·h/mL. Also, the C0 was 3600 ng/mL in series [1] and 42000 ng/mL in series [2] (setting [6]). For the same molecule, the clearance in series [1] was 41.2 mL/min/kg; in series [2] (setting [6]), 19.1 mL/min/kg. The half-life was 48 min in series [1], 42 min in [2] (setting [5]), 48 min in [2] (setting [6]) and 198 min in series [2] (setting [7]). Further, the Vd was determined as 1.8 L/kg in series [1] (read-out: Vss) and 1.2 L/kg in series [2] (CD-1, mouse, plasma, iv, 50 mg/kg, read-out: Vss). Also, the F in series [2] (IP) is 106%; in series [2] (PO) it was 65%.
For the molecule `CS(=O)(=O)O.O=C(Nc1cccc(Cl)c1)Nc1ncc(CCNc2ncnc3ccsc23)s1` [Compound 1, 1-(3-chlorophenyl)-3-{5-[2-(thieno[3,2-d]pyrimidin-4-ylamino)ethyl]thiazo}-urea], the pIC50 is no more than 6.00 with panel of 219 kinases; 7.22 in the series on pHH3 in Calu-6; 7.82 with pHH3 in A375; 7.24 with pHH3 in H1299; 6.82 in the series with pHH3 in A2780. The pEC50 was 7.03 with A375; 8.15 in the series on HL-60; 7.89 in the series on Calu-6; 6.54 in the series on HeLa; 8.21 in the series with A2780; 7.47 in the series on HCT116. Besides, the pEC50 with H1299 was 7.10; with CCRF-CEM it was 8.38; in the series with PC3, 7.96; in the series on MDA-MB-231, 7.52. Moreover, the “level of pHH3 in tumor versus vehicle-treated mice” value in series [3] was “decreased”. In addition, the “% TGI” value was 0% in series [4] (42.5 mg/kg biw × 3), 17.7% in [4] (85 mg/kg biw × 3) and 69.1% in series [4] (170 mg/kg biw × 3). Besides, the TGD is listed as 0 days in series [4] (42.5 mg/kg biw × 3), 0 days in series [4] (85 mg/kg biw × 3) and 5.7 days in series [4] (170 mg/kg biw × 3).
